Measured values published in article PMC11173382, “In Vitro Investigations into the Potential Drug Interactions of Pseudoginsenoside DQ Mediated by Cytochrome P450 and Human Drug Transporters” (Molecules, 2024).

Molecular target: T1, hOAT3 (Homo sapiens, UniProt Q8TCC7)
T1 sequence (Q8TCC7 1-542): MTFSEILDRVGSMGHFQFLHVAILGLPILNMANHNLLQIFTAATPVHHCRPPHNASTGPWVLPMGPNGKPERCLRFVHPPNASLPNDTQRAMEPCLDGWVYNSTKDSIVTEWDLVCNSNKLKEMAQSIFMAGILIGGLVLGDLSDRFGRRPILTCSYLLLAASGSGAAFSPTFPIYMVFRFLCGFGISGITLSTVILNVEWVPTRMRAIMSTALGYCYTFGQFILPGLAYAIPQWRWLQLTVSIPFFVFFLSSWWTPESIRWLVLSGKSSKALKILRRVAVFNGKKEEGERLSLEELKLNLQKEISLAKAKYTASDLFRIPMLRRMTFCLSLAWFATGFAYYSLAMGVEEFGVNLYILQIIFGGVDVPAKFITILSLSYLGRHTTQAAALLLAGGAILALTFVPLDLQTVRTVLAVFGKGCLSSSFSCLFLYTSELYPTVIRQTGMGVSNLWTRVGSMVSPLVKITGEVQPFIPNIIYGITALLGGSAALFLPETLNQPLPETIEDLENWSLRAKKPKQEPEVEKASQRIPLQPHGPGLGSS
Assay: Substrates uptake assay, S2-OAT3 cells (3H-ES)
Type: in vitro ADME
Conditions: for Transport activity of OAT3 (main text: percentage inhibition): negative control = 100%
Excerpt: Drug transporters mediate the cellular uptake and efflux of their substrates. Therefore, cell lines overexpressing a drug transporter can be utilized to investigate inhibitors of the transporter by assessing changes in substrate uptake. For each drug transporter, we selected a well-characterized inhibitor as the positive control. Radiolabeled substrates were used to indicate the decrease in transport efficiency when the drug transporters were inhibited by PDQ or the control inhibitors.
The concentrations of the control drugs and the substrates were stated in the assay details. Working solutions of the control inhibitors, the radiolabeled substrates, and each dose of PDQ were prepared at 200 times (200×) more concentrated solutions with DMSO for further dilution.
Transporter-overexpressed cell lines. Human organic anion transporter-overexpressed cell lines MDCKII-OAT1 and S2-OAT3, human organic anion transport polypeptide-overexpressed cell lines HEK293A-OATP1B1 and HEK293A-OATP1B3, human organic cation transporter 2-overexpressed cell line S2-OCT2, and human multi-drug resistance protein MDR1 (or P-gp)-overexpressed cell line MDCKII-MDR1 were gifts from Japan Fuji Biomedical Co., Ltd. (Fuji, Shizuoka Prefecture, Japan). Breast cancer resistance protein-overexpressed vesicles (sf9-BCRP vesicle) were purchased from GenoMembrane Co., Ltd. (Yokohama, Kanagawa, Japan).
Substrates uptake assay. In this assay, we studied the inhibition of PDQ against transporters OAT1, OAT3, OCT2, OATP1B1 and OATP1B3 with MDCKII-OAT1, S2-OAT3, S2-OCT2, HEK293A-OATP1B1and HEK293A-OATP1B3 cells, respectively. The radiolabeled substrates for OAT1, OAT3, OATP1B1, OATP1B3 and OCT2 were […], respectively (Table 5). Probenecid ([…]) was the positive control inhibitor of OAT1 and OAT3, while rifampicin ([…]) served as the control drug of OATP1B1 and OATP1B3. For OCT2, we used […] cimetidine to compare with the inhibitory effect of PDQ. Two times (2×) more concentrated working solutions of the drugs and the substrate were prepared with Dulbecco’s phosphate-buffered saline (DPBS, Gibco, Grand Island, NY, USA.). Then, an equal volume of 2× drug solution and 2× radiolabeled substrate solution were mixed as the working mix. All reagents were pre-warmed to 37 °C.
The cells were digested with 0.05% trypsin/EDTA. The density of the single-cell suspension was adjusted to 2.0 × 10^5 cells/mL for S2 cells and to 1.5 × 10^5 cells/mL for MDCK II and HEK293A cells. The cell suspension was then added to the reservoirs of the 24-well plate for culture until full confluency. The medium in the wells was removed, and the wells were washed with DPBS. Then, the plate was incubated for 10 min with pre-warmed DPBS in the wells. After removing DPBS, […] of working mix was added to each well to initiate the substrate uptake process. The reaction time was 5 min for S2-OCT2 cells, while the other four types of cells were incubated with the reaction mix for 2 min. Cold DPBS was used to terminate the substrate transportation. To each well, […] NaOH ([…]) was added to lyse the cells. Then, […] cell lysate was transferred to the counting vials, and 3 mL scintillation cocktail (Aquasol-2, PerkinElmer, Waltham, MA, USA) was added. […] Each sample was replicated three times (N = 3).
In = [100 × (U − U0)/(Uc − U0)]%(3)
The results were expressed as mean ± standard deviation (SD) and analyzed with GraphPad Prism 8.0 software (CA, USA). The IC50 of PDQ was curve-fitted with the FORECAST function. Statistical significance was calculated using a two-tailed test, and a p value < 0.05 was considered as significant.

CC(C)(O)[C@@H]1CC[C@@](C)([C@H]2CC[C@]3(C)[C@@H]2[C@H](O)C[C@@H]2[C@@]4(C)CC[C@H](O)C(C)(C)[C@@H]4CC[C@]23C)O1 [PDQ, (20S,24S)-dammar-20,24-epoxy-3β, 12β, 25-triol]
DPM (3H-ES uptake by OAT3) (inhibitor 0.1 μM): 7893.7±359.2 DPM
Transport activity of OAT3 (main text: percentage inhibition) (inhibitor 0.1 μM): 99.5±4.5%
DPM (3H-ES uptake by OAT3) (inhibitor 0.3 μM): 7623.7±652.1 DPM
Transport activity of OAT3 (main text: percentage inhibition) (inhibitor 0.3 μM): 96.1±8.2%
DPM (3H-ES uptake by OAT3) (inhibitor 1 μM): 7285.3±273.2 DPM
Transport activity of OAT3 (main text: percentage inhibition) (inhibitor 1 μM): 91.8±3.4%
DPM (3H-ES uptake by OAT3) (inhibitor 3 μM): 7192.7±157.6 DPM
Transport activity of OAT3 (main text: percentage inhibition) (inhibitor 3 μM): 90.6±2.0%
DPM (3H-ES uptake by OAT3) (inhibitor 10 μM): 4919.0±360.3 DPM
Transport activity of OAT3 (main text: percentage inhibition) (inhibitor 10 μM): 62.0±4.5%
DPM (3H-ES uptake by OAT3) (inhibitor 30 μM): 4541.3±532.8 DPM
